In USRE50282E1, “Specific modification of antibody with IgG-binding peptide” (KAGOSHIMA UNIVERSITY, priority 2015, dated 2025):
*1 amine or outer side, *2 acyl side, *3 side chain or, on linkers, in order; H or OH if unused. Where a SMILES comes first, the peptide text is derived from it. Bridges are numbered along the chain shown (N, C = ends). Where no end group is shown, it is not given here. [ ]: non-standard residue; d: D form. The star is where a group is joined. DSS = disuccinimidyl suberate, reactive NHS group, O=C(CCCCCCC(=O)*)ON1C(=O)CCC1=O; Dolaproine = CO[C@@H]([C@@H]1CCCN1)[C@@H](C)C(=O)O; Hexanoyl(6-maleimido) = O=C1C=CC(=O)N1CCCCCC(=O)*; Biotin = O=C1N[C@H]2[C@H](CS[C@H]2CCCCC(=O)*)N1; Dil = CC[C@H](C)[C@H](NC)[C@@H](CC(=O)O)OC; PABC = O=C(OCc1ccc(N[*:1])cc1)[*:2]; X1 = C[C@@H](N*)[C@@H](O)c1ccccc1; PEG5 = NCCOCCOCCOCCOCCOCCC(=O)O; Cit = NC(=O)NCCC[C@H](N)C(=O)O; NMeV = CN[C@H](C(=O)O)C(C)C

How the values were obtained:
[1] = biological target: T1, human IgG (Homo sapiens, UniProt P01857); type: binding; conditions: SPR; peptides N-terminally blocked with biotinylated PEG4; NHS group hydrolysed
Method: 0.4 M EDC (1-ethyl-3-(3-dimethylaminopropyl)-carbodiimide) and 0.1 M sulfo-NHS (sulfo-N-hydroxysuccinimide) were mixed in equal amounts and then injected onto a CM5 sensor chip loaded in BIAcore T200 (GE Healthcare Japan Corp.) for 7 minutes at a flow rate of 10 μl/ml to activate the sensor chip. IgG was immobilized thereonto in an amount of 4000 to 5000 in terms of RU value under conditions of pH 4.0 (10 mM sodium acetate). While a HBS-EP buffer solution (0.01 M HEPES, 0.15 M NaCl, 0.005% TWEEN® 20, and 3 mM EDTA, pH 7.0) was used, binding reaction was monitored by the injection of the peptide at a concentration of 10 nM to 2 μM for 180 seconds at a flow rate of 50 μl/ml. Then, dissociation reaction was assayed by washing with a buffer solution for 600 seconds. Binding parameters were analyzed using BIAevalution T100 software.

[2] = system: SK-BR3 cells; assay: Cell growth inhibition, Cell Counting Kit-8, 72 hours (Examples 11 and 12); type: cell-based; conditions: 0 to 500 nM
Method: After culture at 37° C. for 24 hours in a 5% CO2 incubator, 100 μL of a medium containing each concentration of the antibody-drug conjugate (ADC) prepared as described above was added to each well, and the cells were further cultured at 37° C. for 72 hours in a CO2 incubator. 10 μL of Cell Counting Kit-8 (Dojindo Laboratories) was added to each well. After incubation at 37° C. for 2 hours in a CO2 incubator, the absorbance at 450 nm was measured using a plate reader.
After culture at 37° C. for 24 hours in a 5% CO2 incubator, 100 μL of a medium containing each concentration of the antibody-drug conjugate (ADC) was added to each well, and the cells were further cultured at 37° C. for 72 hours in a CO2 incubator. 10 μL of Cell Counting Kit-8 (Dojindo Laboratories) was added to each well. After incubation at 37° C. for 2 hours in a CO2 incubator, the absorbance at 450 nm was measured using a plate reader.

[3] = biological target: human IgG (Homo sapiens, UniProt P01859); assay: Labeling of various IgG, SDS-PAGE and Western blot with HRP-labeled streptavidin (Example 13); conditions: human IgG2; antibody:peptide 1:4; 30 minutes
Sequence of human IgG (Homo sapiens, UniProt P01859) (P01859 1-326 isoform P01859-1): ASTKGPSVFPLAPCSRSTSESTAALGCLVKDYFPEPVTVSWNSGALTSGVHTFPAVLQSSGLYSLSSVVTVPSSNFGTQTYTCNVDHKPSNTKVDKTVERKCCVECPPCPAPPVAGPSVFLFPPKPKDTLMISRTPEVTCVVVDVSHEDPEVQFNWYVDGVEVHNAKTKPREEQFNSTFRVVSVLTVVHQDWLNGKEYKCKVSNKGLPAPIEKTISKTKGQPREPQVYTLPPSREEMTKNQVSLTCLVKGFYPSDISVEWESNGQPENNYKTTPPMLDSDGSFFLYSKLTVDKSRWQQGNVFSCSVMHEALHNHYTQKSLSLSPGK

[4] = biological target: T1, human IgG; assay: as above; conditions: human monoclonal IgG1; antibody:peptide 1:4; 30 minutes
[5] = biological target: human IgG (Homo sapiens, UniProt P01861); assay: as above; conditions: human IgG4; antibody:peptide 1:4; 30 minutes
Sequence of human IgG (Homo sapiens, UniProt P01861) (P01861 1-327 isoform P01861-1): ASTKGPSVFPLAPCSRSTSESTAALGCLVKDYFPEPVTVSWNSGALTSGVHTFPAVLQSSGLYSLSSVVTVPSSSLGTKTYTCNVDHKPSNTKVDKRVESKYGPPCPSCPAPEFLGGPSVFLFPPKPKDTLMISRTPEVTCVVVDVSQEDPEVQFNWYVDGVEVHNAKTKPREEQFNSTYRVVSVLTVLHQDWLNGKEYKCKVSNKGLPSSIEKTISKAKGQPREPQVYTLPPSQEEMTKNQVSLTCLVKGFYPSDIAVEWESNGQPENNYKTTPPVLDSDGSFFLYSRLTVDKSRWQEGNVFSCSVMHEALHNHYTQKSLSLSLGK

[6] = biological target: T2, rabbit IgG (polyclonal antibody) (Oryctolagus cuniculus, UniProt P01870); assay: as above; type: binding; conditions: antibody:peptide 1:4; 30 minutes
T2 construct: purchased Thermo Fisher Scientific Inc
T2 sequence (P01870 whole entry): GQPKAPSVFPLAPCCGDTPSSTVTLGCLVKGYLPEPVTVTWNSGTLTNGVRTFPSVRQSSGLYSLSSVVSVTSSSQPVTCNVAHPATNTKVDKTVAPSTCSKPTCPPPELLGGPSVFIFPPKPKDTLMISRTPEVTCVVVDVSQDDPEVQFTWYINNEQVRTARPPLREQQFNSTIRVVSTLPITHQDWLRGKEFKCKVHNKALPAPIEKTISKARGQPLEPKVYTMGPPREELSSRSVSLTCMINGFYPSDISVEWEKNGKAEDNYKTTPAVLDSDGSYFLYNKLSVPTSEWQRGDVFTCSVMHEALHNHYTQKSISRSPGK

[7] = system: SK-BR3 cells; conditions: peptide plus SA-PE label only
Method: (§1) HEK293 cells were transfected with pcDNA3.1/Zeo(+) carrying scFv-Fc gene comprising anti-Her2 scFv (4D5) linked to Fc genes, using Lipofectamine 2000, and cultured for 5 days. […] The cells were washed once with PBS containing 3% BSA and suspended in 100 μL of PBS containing 3% BSA. […] The cells were washed once again with PBS containing 3% BSA and then dispersed in 100 μL of PBS containing 3% BSA.

[8] = system: 4D5-Fc antibody; conditions: PE-labeled streptavidin; dead cells excluded by 7-AAD
Method: as §1

[9] = biological target: T3, human IgG Fc (Homo sapiens, UniProt P01857); assay: Cross-linking reaction with Fc analyzed by ion-exchange chromatography (Examples 6 and 7); type: biochemical; conditions: for unreacted form (peak 2) produced: 15 minutes
T3 construct: human IgG (Chugai Pharmaceutical Co., Ltd.) Fc solution; purchased Chugai Pharmaceutical Co., Ltd
Method: The reaction was terminated by the addition of 10 μL of 1 M Tris-HCl (pH 7.0). 50 μL of the reaction product was injected to NGC Chromatography system (Bio-Rad Laboratories, Inc.) connected with Shodex IEC SP-825 column, followed by gradient elution from a 25 mM acetate buffer (pH 4.5) to a 25 mM acetate buffer (pH 4.5) containing 1 M NaCl. The protein elution was monitored on the basis of absorbance at 215 nm. Each obtained peak was separated and subjected to molecular weight measurement by LC/MS.
20 μL of the obtained fraction of the peak was injected to Shimadzu LCMS-8030 connected with Waters ACQUITY UPLC BEH C8 (1.7 μm, 2.1 mm×100 mm) column, followed by gradient elution from 4% acetonitrile containing 0.1% formic acid to 60% acetonitrile containing 0.1% formic acid. The eluted peaks were subjected to mass spectrometry, and the masses were calculated by deconvolution from polyvalent ion peaks using analytical software.
1.0 μL (molar ratio: 1.0) of the DSG-modified IgG-binding peptide (4 mM) dissolved in DMF, prepared in Example 5 was added to 200 μL of a human IgG Fc solution prepared at pH 4.0 (25 mM acetate buffer solution), pH 5.5 (25 mM acetate buffer solution), or pH 7.0 (PBS), and the mixture was rapidly stirred and then reacted at room temperature. 1, 5, 10, or 30 minutes after the start of the reaction, the reaction was terminated by the addition of 10 μL of 1 M Tris-HCl (pH 7.0). 50 μL of the reaction product was injected to NGC Chromatography system (Bio-Rad Laboratories, Inc.) connected with Shodex IEC SP-825 column, followed by gradient elution from a 25 mM acetate buffer (pH 4.5) to a 25 mM acetate buffer (pH 4.5) containing 1 M NaCl. The protein elution was monitored on the basis of absorbance at 215 nm. On the basis of the obtained chromatogram, the percentage of each peak was calculated.

[10] = biological target: T4, hIgG (Homo sapiens, UniProt P01857); assay: ELISA of reaction between labeled IgG-binding peptide and plate-adsorbed IgG (Example 4)
T4 construct: purchased Chugai Pharmaceutical Co., Ltd
Method: The biotinylated IgG-binding peptide modified with DSG was added at a molar ratio of 2 to hIgG (50 ng) immobilized overnight at 4° C. with a 50 ng/50 μL solution. […] The binding was detected in the same way as in (A).

[11] = system: hIgA, bovine gelatin, or BSA; assay: ELISA of reaction between labeled IgG-binding peptide and other plate proteins (Example 4); conditions: excess of labeled peptide reagent
Method: A 0.1 M NaHCO3 solution containing each protein (IgG (Chugai Pharmaceutical Co., Ltd.), IgA (Athens Research & Technology, Inc.), or bovine gelatin (Wako Pure Chemical Industries, Ltd.)) (50 ng (0.33 pmol)/μl/well) was added to wells of a 96-well microplate (Nunc® MaxiSorp), and the plate was left overnight at room temperature to adsorb each protein onto the surface of the plate. […] After a lapse of 1 hour, the reaction was terminated by the addition of 1 M Tris-HCl (pH 7.0) at 3 μL/well. SA-HRP (Vector Laboratories, Inc.) diluted 2000-fold with 0.5% BSA was added thereto at 50 μL/well and reacted at room temperature for 1 hour. Then, the plate was washed five times with 0.1% PBST. Then, a TMB solution (Wako Pure Chemical Industries, Ltd.) was used in the color development of HRP. After 5-minute chromogenic reaction, the absorbance at 450 nm was measured using an ELISA plate reader (model 680 microplate reader (Bio-Rad Laboratories, Inc.)).

## CC(C)C[C@@H]1NC(=O)[C@H](CCC(=O)O)NC(=O)CNC(=O)[C@H](CCCNC(=N)N)NC(=O)[C@H](Cc2c[nH]cn2)NC(=O)[C@H](Cc2ccc(O)cc2)NC(=O)[C@H](C)NC(=O)[C@@H](NC(=O)[C@H](CC(=O)O)NC(=O)[C@@H]2CCCN2C(=O)CNC(=O)CCOCCOCCOCCOCCOCCNC(=O)CCCC[C@@H]2SC[C@@H]3NC(=O)N[C@@H]32)CSSC[C@@H](C(=O)N[C@H](C(=O)N[C@@H](Cc2ccccc2)C(=O)N[C@@H](Cc2c[nH]cn2)C(N)=O)[C@@H](C)O)NC(=O)[C@H](Cc2c[nH]c3ccccc23)NC(=O)[C@H](C(C)C)NC1=O [Type I] ({Biotin-PEG5}-GPDCAYHRGELVWCTFH-NH2; disulfide 4-14)
[1]
  ka: 1.57E+06
  kd: 0.0144

## CC[C@H](C)[C@@H]([C@@H](CC(=O)N1CCC[C@H]1[C@H](OC)[C@@H](C)C(=O)N[C@H](C)[C@@H](O)c1ccccc1)OC)N(C)C(=O)[C@@H](NC(=O)[C@H](C(C)C)N(C)C(=O)OCc1ccc(NC(=O)[C@H](CCCNC(N)=O)NC(=O)[C@@H](NC(=O)CCCCCN2C(=O)C=CC2=O)C(C)C)cc1)C(C)C [VcMMAE, maleimidocaproyl-valine-citrulline-p-aminobenzoyloxycarbonyl-monomethyl auristatin E] ({Hexanoyl(6-maleimido)}-V[Cit][PABC][NMeV]V[Dil][Dolaproine]-X1)
[2]
  concentration giving cell growth inhibition: ≥ 250 nM

## Biotin-PEG4-RGNCAYHXGQLVWCTYH-NH2 [DSG-modified IgG-binding peptide]
[3]
  labeling of human IgG2 (band in Western blot): dark bands
[4]
  labeling of human IgG1 (band in Western blot): dark bands
[5]
  labeling of human IgG4 (band in Western blot): dark bands
[6]
  labeling of rabbit polyclonal IgG (staining in Western blot): strongly stained
[7]
  shift in fluorescence intensity without 4D5-Fc: no shift in fluorescence intensity
[8]
  fluorescence intensity compared with biotinylated anti-human IgG mouse antibody: rarely differed in fluorescence intensity
[9]; excessive molar ratio 1:5, pH 4.5
  Fc with a larger number of peptides than two added: not detected
[9]; molar ratio 1:1, pH 4.5, room temperature
  unreacted form (peak 2) produced: ≤ 20%
[9]; molar ratio 1:2, pH 4.5, room temperature
  unreacted form (peak 2) produced: ≤ 10%
[9]; other pH cases (pH 5.5, pH 7.0), molar ratio 1.0
  yield of the adduct of two peptides (peak 4): 35-40%
[9]; pH 4.0, pH 5.5 and pH 7.0, molar ratio 1.0, room temperature
  part of the reaction completed within 1 minute: ≥ 90%
[9]; pH 4.0, molar ratio 1.0
  amount of the unreacted form remaining: exceeded 40%
  yield of the adduct of two peptides (peak 4): approximately 15%
[9]; pH 5.5 and 7.0, molar ratio 1.0
  yield of the unreacted form: ~10%

## labeled IgG-binding peptide modified with DSS: biotinylated IgG-binding (R8K) peptide modified with cross-linking agent, prepared as in Example 2 (GDDCAYHK(DSS)GELVWCTFH-NH2; not fully specified (N-terminus); cysteine pairing not given here; also: biotinylated)
[10]; IgG and peptide at molar ratio 1:2
  reaction time at which saturation was seen: approximately 15 minutes
[10]; molar ratios 1 to 10, 1 hour
  molar ratio at which saturation was seen: approximately 5
[11]
  binding to other proteins: not detected
